Source: patent publication US8129366B2, “VLA-4 inhibitory drug” (Daiichi Sankyo Company, Limited, priority 2005, dated 2012)

Biological target: T1, hα4 and β1 integrins (Homo sapiens, UniProt P05556+P13612)
T1 construct: expressed in transfected cells; host or cells: CHO cells
Test: In vitro inhibition of binding between CHO cells expressing hα4 and β1 integrins and Eu3+-hVCAM-1 D1D7-IgG
Details: for Ki: CHO cells expressing hα4 and β1 integrins, Eu3+-hVCAM-1 D1D7-IgG ligand, without HSA; for IC50: in the presence of 3% human serum albumin (HSA final concentration 3%)
Method in brief: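 Bound europium-labelled VCAM-1 D1D7-IgG on α4β1-expressing CHO cells was measured by time-resolved fluorescence after washing at 4 °C. Ligand (2 nM working dilution) and test compound, with or without 3% final HSA, were co-incubated for 1 h at room temperature in Mn²⁺-containing HEPES buffer, pH 7.5. IC50 came from % binding inhibition; Ki was calculated from ligand concentration and Scatchard Kd.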

T1 sequence (P13612 34-1032): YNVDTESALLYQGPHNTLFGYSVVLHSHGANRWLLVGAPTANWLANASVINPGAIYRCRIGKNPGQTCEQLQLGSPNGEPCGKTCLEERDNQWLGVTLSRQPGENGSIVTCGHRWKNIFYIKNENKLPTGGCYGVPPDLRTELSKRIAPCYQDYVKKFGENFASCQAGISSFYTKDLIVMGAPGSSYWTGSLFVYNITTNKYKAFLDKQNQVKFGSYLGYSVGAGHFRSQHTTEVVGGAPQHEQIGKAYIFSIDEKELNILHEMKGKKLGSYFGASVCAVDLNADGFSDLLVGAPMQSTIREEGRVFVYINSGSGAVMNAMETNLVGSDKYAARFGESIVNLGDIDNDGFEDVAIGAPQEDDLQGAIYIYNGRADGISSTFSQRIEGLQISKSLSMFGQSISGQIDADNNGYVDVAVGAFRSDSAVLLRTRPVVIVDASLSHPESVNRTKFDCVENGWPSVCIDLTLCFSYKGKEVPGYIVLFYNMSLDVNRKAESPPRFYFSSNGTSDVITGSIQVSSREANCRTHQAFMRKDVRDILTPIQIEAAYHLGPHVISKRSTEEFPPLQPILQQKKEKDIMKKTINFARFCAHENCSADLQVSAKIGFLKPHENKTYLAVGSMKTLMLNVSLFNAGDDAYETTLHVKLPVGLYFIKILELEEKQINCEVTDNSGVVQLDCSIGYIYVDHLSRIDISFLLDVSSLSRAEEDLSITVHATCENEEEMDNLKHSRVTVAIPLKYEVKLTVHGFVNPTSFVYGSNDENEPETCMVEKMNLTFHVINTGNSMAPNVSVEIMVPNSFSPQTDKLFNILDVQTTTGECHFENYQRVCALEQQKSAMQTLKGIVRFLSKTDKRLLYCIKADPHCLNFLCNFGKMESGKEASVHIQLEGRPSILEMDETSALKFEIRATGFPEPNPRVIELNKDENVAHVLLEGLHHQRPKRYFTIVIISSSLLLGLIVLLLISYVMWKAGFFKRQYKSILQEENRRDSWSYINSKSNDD
T1 sequence (P05556 21-798): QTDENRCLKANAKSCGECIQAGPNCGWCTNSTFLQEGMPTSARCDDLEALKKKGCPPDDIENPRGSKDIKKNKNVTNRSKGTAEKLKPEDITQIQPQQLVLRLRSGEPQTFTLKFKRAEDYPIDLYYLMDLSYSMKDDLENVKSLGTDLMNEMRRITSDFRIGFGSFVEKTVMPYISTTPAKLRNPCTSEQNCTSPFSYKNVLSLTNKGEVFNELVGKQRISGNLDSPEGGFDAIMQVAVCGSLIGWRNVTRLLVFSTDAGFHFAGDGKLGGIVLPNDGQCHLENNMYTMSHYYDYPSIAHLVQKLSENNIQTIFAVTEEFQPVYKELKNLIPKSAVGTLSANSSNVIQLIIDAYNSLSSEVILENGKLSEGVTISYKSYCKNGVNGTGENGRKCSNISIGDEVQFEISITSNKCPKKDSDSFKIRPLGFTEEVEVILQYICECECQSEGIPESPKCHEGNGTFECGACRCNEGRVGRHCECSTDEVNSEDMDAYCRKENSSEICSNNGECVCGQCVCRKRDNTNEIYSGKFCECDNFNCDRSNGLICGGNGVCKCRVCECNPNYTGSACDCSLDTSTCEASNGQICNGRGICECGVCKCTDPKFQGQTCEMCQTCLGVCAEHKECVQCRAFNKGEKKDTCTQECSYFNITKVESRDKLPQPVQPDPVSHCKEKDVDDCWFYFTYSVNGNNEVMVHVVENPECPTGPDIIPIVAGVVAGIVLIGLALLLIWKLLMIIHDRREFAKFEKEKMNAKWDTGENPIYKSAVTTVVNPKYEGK

Ki [nM]	IC50 [nM]	SMILES
1.3	3.3	COc1cc(CC(=O)N2C[C@@H](N3CCN(CC(F)(F)F)CC3)C[C@H]2CO[C@H]2CC[C@H](C(=O)O)CC2)ccc1NC(=O)c1csc2ccccc12 [Example 133, Trans-4-[1-[[4-[(benzo[b]thiophen-3-ylcarbonyl)amino]-3-methoxyphenyl]acetyl]-(4S)-[4-(2,2,2-trifluoroethyl)piperazin-1-yl]-(2S)-pyrrolidinylmethoxy]cyclohexanecarboxylic acid]
1.2	6.8	O=C(Nc1ccc(CC(=O)N2C[C@@H](N3CCN(CC(F)(F)F)CC3)C[C@H]2CO[C@H]2CC[C@H](C(=O)O)CC2)cc1Cl)c1csc2ccccc12 [Example 134, Trans-4-[1-[[4-[(benzo[b]thiophen-3-ylcarbonyl)amino]-3-chlorophenyl]acetyl]-(4S)-[4-(2,2,2-trifluoroethyl)piperazin-1-yl]-(2S)-pyrrolidinylmethoxy]cyclohexanecarboxylic acid]
1.7	4.4	COc1cc(CC(=O)N2C[C@@H](N3CCN(CC(F)(F)F)CC3)C[C@H]2CO[C@H]2CC[C@H](C(=O)O)CC2)ccc1NC(=O)c1cn(C)c2ccccc12 [Example 135, Trans-4-[1-[[3-methoxy-4-[(1-methyl-1H-indol-3-ylcarbonyl)amino]phenyl]acetyl]-(4S)-[4-(2,2,2-trifluoroethyl)piperazin-1-yl]-(2S)-pyrrolidinylmethoxy]cyclohexanecarboxylic acid]
2.9	8.7	COCCN1CCN([C@H]2C[C@@H](CO[C@H]3CC[C@H](C(=O)O)CC3)N(C(=O)Cc3cc(Cl)c(NC(=O)c4cn(C)c5ccccc45)cc3Cl)C2)CC1 [Example 137, Trans-4-[1-[[2,5-dichloro-4-[(1-methyl-1H-indol-3-ylcarbonyl)amino]phenyl]acetyl]-(4S)-(4-(2-methoxyethyl)piperazin-1-yl)-(2S)-pyrrolidinylmethoxy]cyclohexanecarboxylic acid]
0.91	7.7	O=C(Nc1cc(Cl)c(CC(=O)N2C[C@@H](N3CCN(C4CC4)CC3)C[C@H]2CO[C@H]2CC[C@H](C(=O)O)CC2)cc1Cl)c1csc2ccccc12 [Example 138, Trans-4-[1-[[4-[(benzo[b]thiophen-3-ylcarbonyl)amino]-2,5-dichlorophenyl]acetyl]-(4S)-(4-cyclopropylpiperazin-1-yl)-(2S)-pyrrolidinylmethoxy]cyclohexanecarboxylic acid]
1.8	7.6	O=C(Nc1cc(Cl)c(CC(=O)N2C[C@@H](N3CCN(C4CC4)CC3)C[C@H]2CO[C@H]2CC[C@H](C(=O)O)CC2)cc1Cl)c1coc2ccccc12 [Example 140]
6.3	23	Cn1cc(C(=O)Nc2cc(F)c(CC(=O)N3C[C@@H](N4CCN(C5(C)CC5)CC4)C[C@H]3CO[C@H]3CC[C@H](C(=O)O)CC3)cc2Cl)c2ccccc21 [Example 141, Trans-4-[1-[[5-chloro-2-fluoro-4-[(1-methyl-1H-indol-3-ylcarbonyl)amino]phenyl]acetyl]-(4S)-[4-(1-methylcyclopropan-1-yl)piperazin-1-yl]-(2S)-pyrrolidinylmethoxy]cyclohexa necarboxylic acid]
4.7	11	Cn1cc(C(=O)Nc2cc(F)c(CC(=O)N3C[C@@H](N4CCN(C5CCCC5)CC4)C[C@H]3CO[C@H]3CC[C@H](C(=O)O)CC3)cc2Cl)c2ccccc21 [Example 142, Trans-4-[1-[[5-chloro-2-fluoro-4-[(1-methyl-1H-indol-3-ylcarbonyl)amino]phenyl]acetyl]-(4S)-[4-cyclopentylpiperazin-1-yl]-(2S)-pyrrolidinylmethoxy]cyclohexanecarboxylic acid]
3.5	14	O=C(Nc1cc(Cl)c(CC(=O)N2C[C@@H](N3CCN(C4CCCCC4)CC3)C[C@H]2CO[C@H]2CC[C@H](C(=O)O)CC2)cc1Cl)c1coc2ccccc12 [Example 143, Trans-4-[1-[[4-[(benzo[b]furan-3-ylcarbonyl)amino]-2,5-dichlorophenyl]acetyl]-(4S)-[4-cyclohexylpiperazin-1-yl]-(2S)-pyrrolidinylmethoxy]cyclohexanecarboxylic acid]
3.9	11	Cn1cc(C(=O)Nc2cc(F)c(CC(=O)N3C[C@@H](N4CCN(c5ccncc5)CC4)C[C@H]3CO[C@H]3CC[C@H](C(=O)O)CC3)cc2Cl)c2ccccc21 [Example 145, Trans-4-[1-[[5-chloro-2-fluoro-4-[(1-methyl-1H-indol-3-ylcarbonyl)amino]phenyl]acetyl]-(4S)-[4-(4-pyridyl)piperazin-1-yl]-(2S)-pyrrolidinylmethoxy]cyclohexanecarboxylic acid]
2.6	7.6	C[C@@H]1CN([C@H]2C[C@@H](CO[C@H]3CC[C@H](C(=O)O)CC3)N(C(=O)Cc3cc(Cl)c(NC(=O)c4coc5ccccc45)cc3F)C2)C[C@H](C)N1C [Example 146, Trans-4-[1-[[4-[(benzo[b]furan-3-ylcarbonyl)amino]-5-chloro-2-fluorophenyl]acetyl]-(4S)-(cis-1,2,6-trimethylpiperazin-4-yl)-(2S)-pyrrolidinylmethoxy]cyclohexanecarboxylic acid]
0.53	2.8	CC(=O)N1CCN([C@H]2C[C@@H](CO[C@H]3CC[C@H](C(=O)O)CC3)N(C(=O)Cc3cc(Cl)c(NC(=O)c4csc5ccccc45)cc3F)C2)CC1 [Example 148, Trans-4-[1-[[4-[(benzo[b]thiophen-3-ylcarbonyl)amino]-5-chloro-2-fluorophenyl]acetyl]-(4S)-(4-acetylpiperazin-1-yl)-(2S)-pyrrolidinylmethoxy]cyclohexanecarboxylic acid]
1.7	24	Cn1cc(C(=O)Nc2cc(Cl)c(CC(=O)N3C[C@@H](N4CCN(C(=O)C(C)(C)C)CC4)C[C@H]3CO[C@H]3CC[C@H](C(=O)O)CC3)cc2Cl)c2ccccc21 [Example 149, Trans-4-[1-[[2,5-dichloro-4-[(1-methyl-1H-indol-3-ylcarbonyl)amino]phenyl]acetyl]-(4S)-(4-pivaloylpiperazin-1-yl)-(2S)-pyrrolidinylmethoxy]cyclohexanecarboxylic acid]
1.6	6.8	CS(=O)(=O)N1CCN([C@H]2C[C@@H](CO[C@H]3CC[C@H](C(=O)O)CC3)N(C(=O)Cc3cc(Cl)c(NC(=O)c4coc5ccccc45)cc3F)C2)CC1 [Example 150, Trans-4-[1-[[4-[(benzo[b]furan-3-ylcarbonyl)amino]-5-chloro-2-fluorophenyl]acetyl]-(4S)-(4-methanesulfonylpiperazin-1-yl)-(2S)-pyrrolidinylmethoxy]cyclohexanecarboxylic acid]
4.2	26	CN(C)S(=O)(=O)N1CCN([C@H]2C[C@@H](CO[C@H]3CC[C@H](C(=O)O)CC3)N(C(=O)Cc3cc(Cl)c(NC(=O)c4cn(C)c5ccccc45)cc3Cl)C2)CC1 [Example 151, Trans-4-[1-[[2,5-dichloro-4-[(1-methyl-1H-indol-3-ylcarbonyl)amino]phenyl]acetyl]-(4S)-(4-N,N-dimethylsulfamoylpiperazin-1-yl)-(2S)-pyrrolidinylmethoxy]cyclohexanecarboxylic acid]
3.9	11	CN1CCN([C@H]2C[C@@H](CO[C@H]3CC[C@H](C(=O)O)CC3)N(C(=O)Cc3cc(Cl)c(NC(=O)c4cn(C)c5ccccc45)cc3Cl)C2)CC1=O [Example 152, Trans-4-[1-[[2,5-dichloro-4-[(1-methyl-1H-indol-3-ylcarbonyl)amino]phenyl]acetyl]-(4S)-(4-methyl-3-oxopiperazin-1-yl)-(2S)-pyrrolidinylmethoxy]cyclohexanecarboxylic acid]
1.5	9.3	CN1CCN([C@H]2C[C@@H](CO[C@H]3CC[C@H](C(=O)O)CC3)N(C(=O)Cc3cc(Cl)c(NC(=O)c4csc5ccccc45)cc3Cl)C2)CC1=O [Example 153, Trans-4-[1-[[4-[(benzo[b]thiophen-3-ylcarbonyl)amino]-2,5-dichlorophenyl]acetyl]-(4S)-(4-methyl-3-oxopiperazin-1-yl)-(2S)-pyrrolidinylmethoxy]cyclohexanecarboxylic acid]
0.92	9.1	CCN1CCN([C@H]2C[C@@H](CO[C@H]3CC[C@H](C(=O)O)CC3)N(C(=O)Cc3cc(Cl)c(NC(=O)c4csc5ccccc45)cc3F)C2)CC1=O [Example 154, Trans-4-[1-[[4-[(benzo[b]thiophen-3-ylcarbonyl)amino]-5-chloro-2-fluorophenyl]acetyl]-(4S)-(4-ethyl-3-oxopiperazin-1-yl)-(2S)-pyrrolidinylmethoxy]cyclohexanecarboxylic acid]
2.1	10	CN1CCN([C@H]2C[C@@H](CO[C@H]3CC[C@H](C(=O)O)CC3)N(C(=O)Cc3cc(Cl)c(NC(=O)c4coc5ccccc45)cc3Cl)C2)CC1=O [Example 155, Trans-4-[1-[[4-[(benzo[b]furan-3-ylcarbonyl)amino]-2,5-dichlorophenyl]acetyl]-(4S)-(4-methyl-3-oxopiperazin-1-yl)-(2S)-pyrrolidinylmethoxy]cyclohexanecarboxylic acid]
4	16	Cn1cc(C(=O)Nc2cc(F)c(CC(=O)N3C[C@@H](N4CCSCC4)C[C@H]3CO[C@H]3CC[C@H](C(=O)O)CC3)cc2Cl)c2ccccc21 [Example 158, Trans-4-[1-[[5-chloro-2-fluoro-4-[(1-methyl-1H-indol-3-ylcarbonyl)amino]phenyl]acetyl]-(4S)-(thiomorpholin-4-yl)-(2S)-pyrrolidinylmethoxy]cyclohexanecarboxylic acid]
